From patent US9139551B2, “Preparation of a new class of water-soluble ammonium 2,3-dihydroxy-5-((2R,3R)-3,5,7-trihydroxy-4-oxochroman-2-yl) phenolates and their biological activity of alcohol elimination” (priority 2014, dated 2015)
Where two headings read alike, the source gives them in different places.

Experiment: Acute toxicity, intraperitoneal administration (mortality, LD50, body weight, dietary)
Assay type: in vivo, mice
Settings: both sexes, mouse, in vivo, ip, mice, i.p., observed 7 days
Description: Acute Toxicity • Compounds PDHM/TDHM.
140 mice were divided into 7 groups (n=20), each group include 10 males and 10 females, they were treated with different concentrations of dosages and observed for 7 days. Specific experimental groups and experimental results were noted below. Note: Section 1-6 group compound are PDHM groups, and group 7 is a negative control group.
140 mice were divided into 7 groups (n=20), each group include 10 males and 10 females, they were treated with different concentrations of dosage and observed for 7 days. Note: Section 1-6 group compound are PDHM groups, and group 7 is a negative control group.

SMILES: O=C1c2c(O)cc(O)cc2O[C@H](c2cc(O)c(O)c(O)c2)[C@H]1O [PDHM, piperidinium 2,3-dihydroxy-5-((2R,3R)-3,5,7-trihydroxy-4-oxochroman-2-yl)phenolate]
- LD50 at 7 days (read-out: 95% confidence limit of LD50): 743 to 755 mg/kg
- LD50 at 7 days (read-out: LD50): 902 mg/kg
